PubChem BioAssay (NCI)
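These data come from cells grown in 96-well plates and exposed to compound for 48 hours at five concentrations. GI50 is the concentration that inhibits growth by half. TGI is the concentration that stops growth completely.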

How the values were obtained:
Experiment in all cases: inhibition of tumour cell growth, NCI panel, 48 h
[1] = test system: SF-295 CNS
[2] = test system: NCI-H460 lung
[3] = test system: RPMI-8226 leukemia
[4] = test system: 786-0 renal
[5] = test system: SF-268 CNS
[6] = test system: SK-MEL-5 melanoma
[7] = test system: BT-549 breast
[8] = test system: KM12 colon
[9] = test system: SNB-75 CNS
[10] = test system: LOX IMVI melanoma
[11] = test system: MOLT-4 leukemia
[12] = test system: SR leukemia
[13] = test system: A498 renal
[14] = test system: TK-10 renal
[15] = test system: SN12C renal
[16] = test system: M14 melanoma
[17] = test system: SK-MEL-28 melanoma
[18] = test system: PC-3 prostate
[19] = test system: SW-620 colon
[20] = test system: SNB-19 CNS
[21] = test system: UACC-257 melanoma
[22] = test system: NCI-H226 lung
[23] = test system: SF-539 CNS
[24] = test system: K-562 leukemia
[25] = test system: EKVX NSCLC
[26] = test system: COLO 205 colon
[27] = test system: T-47D breast
[28] = test system: CAKI-1 renal
[29] = test system: HS 578T breast
[30] = test system: UO-31 renal
[31] = test system: MCF7 breast
[32] = test system: SK-OV-3 ovarian
[33] = test system: HCC-2998 colon
[34] = test system: MDA-MB-231 breast
[35] = test system: UACC-62 melanoma
[36] = test system: DU-145 prostate
[37] = test system: HCT-15 colon
[38] = test system: OVCAR-3 ovarian
[39] = test system: OVCAR-4 ovarian
[40] = test system: HOP-92 NSCLC
[41] = test system: HOP-62 NSCLC
[42] = test system: HCT-116 colon
[43] = test system: HT29 colon
[44] = test system: ACHN renal
[45] = test system: OVCAR-5 ovarian
[46] = test system: U251 CNS
[47] = test system: NCI/ADR-RES ovarian
[48] = test system: OVCAR-8 ovarian
[49] = test system: IGROV1 ovarian
[50] = test system: CCRF-CEM leukemia
[51] = test system: A549 NSCLC
[52] = test system: NCI-H522 lung
[53] = test system: MALME-3M melanoma
[54] = test system: SK-MEL-2 melanoma
[55] = test system: MDA-MB-435
[56] = test system: RXF 393 renal
[57] = test system: HL-60(TB) leukemia

## O=C1[C@H]2Cc3c([nH]c4ccccc34)[C@@H](c3ccc(Br)cc3)N2C(=O)CN1C1CCN(CC2CCCCC2)CC1
[1]
  GI50: 17.5 µM
  TGI: 31.9 µM
[2]
  GI50: 18.8 µM
  TGI: 36.1 µM
[3]
  GI50: 23.4 µM
  TGI: 53.4 µM
[4]
  GI50: 15.6 µM
  TGI: 29.4 µM
[5]
  GI50: 15.3 µM
  TGI: 31.9 µM
[6]
  GI50: 16.1 µM
  TGI: 29.9 µM
[7]
  GI50: 15.5 µM
  TGI: 29.6 µM
[8]
  GI50: 17 µM
  TGI: 34 µM
[9]
  GI50: 87.1 µM
  TGI: > 100 µM
[10]
  GI50: 18.6 µM
  TGI: 34.3 µM
[11]
  GI50: 20.4 µM
  TGI: 81.6 µM
[12]
  GI50: 16 µM
  TGI: 46.1 µM
[13]
  GI50: 13.7 µM
  TGI: 26.9 µM
[14]
  GI50: 17.8 µM
  TGI: 35.1 µM
[15]
  GI50: 15.8 µM
  TGI: 30.9 µM
[16]
  GI50: 16.9 µM
  TGI: 32.9 µM
[17]
  GI50: 16.4 µM
  TGI: 30.6 µM
[18]
  GI50: 12.4 µM
  TGI: 25.5 µM
[19]
  GI50: 16.5 µM
  TGI: 31.8 µM
[20]
  GI50: 15.9 µM
  TGI: 31.5 µM
[21]
  GI50: 20.2 µM
  TGI: 42.7 µM
[22]
  GI50: 30.4 µM
  TGI: > 100 µM
[23]
  GI50: 15.5 µM
  TGI: 29.5 µM
[24]
  GI50: 16.5 µM
  TGI: 53.1 µM
[25]
  GI50: 13.8 µM
  TGI: 27.4 µM
[26]
  GI50: 14.3 µM
  TGI: 30.2 µM
[27]
  GI50: 13.9 µM
  TGI: > 100 µM
[28]
  GI50: 14.6 µM
  TGI: 28.2 µM
[29]
  GI50: 18.4 µM
  TGI: 45.1 µM
[30]
  GI50: 11.7 µM
  TGI: 24.2 µM
[31]
  GI50: 10.1 µM
  TGI: 22.3 µM
[32]
  GI50: 21.9 µM
  TGI: 59.3 µM
[33]
  GI50: 14.4 µM
  TGI: 28 µM
[34]
  GI50: 15.2 µM
  TGI: 30.1 µM
[35]
  GI50: 16 µM
  TGI: 29.9 µM
[36]
  GI50: 17.6 µM
  TGI: 33.6 µM
[37]
  GI50: 16 µM
  TGI: 30.8 µM
[38]
  GI50: 15.3 µM
  TGI: 29.5 µM
[39]
  GI50: 17.9 µM
  TGI: 37.1 µM
[40]
  GI50: 6.7 µM
  TGI: 21.1 µM
[41]
  GI50: 16.2 µM
  TGI: 34.6 µM
[42]
  GI50: 13.6 µM
  TGI: 27.2 µM
[43]
  GI50: 14.8 µM
  TGI: 35 µM
[44]
  GI50: 15.3 µM
  TGI: 28.7 µM
[45]
  GI50: 15.1 µM
  TGI: 28.8 µM
[46]
  GI50: 16.4 µM
  TGI: 34 µM
[47]
  GI50: 16.7 µM
  TGI: 34.1 µM
[48]
  GI50: 22.5 µM
  TGI: 55.5 µM
[49]
  GI50: 13.4 µM
  TGI: 26.7 µM
[50]
  GI50: 24.1 µM
  TGI: 56.5 µM
[51]
  GI50: 18.3 µM
  TGI: 39.9 µM
[52]
  GI50: 17.9 µM
  TGI: 39.9 µM
[53]
  GI50: 13.8 µM
  TGI: 28.3 µM
[54]
  GI50: 23 µM
  TGI: 58.7 µM
[55]
  GI50: 16.9 µM
  TGI: 31.6 µM
[56]
  GI50: 11.9 µM
  TGI: 24.2 µM
[57]
  GI50: 16.4 µM
  TGI: 41.8 µM
